Experimental data taken from PubChem BioAssay (NCI).
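At the GI50, growth is halved. TGI marks complete inhibition of growth.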

Legend:
Assay in all cases: NCI anticancer screen, dose series, 384-well format
786-0 renal = system: 786-0 renal
A498 renal = system: A498 renal
A549 NSCLC = system: A549 NSCLC
ACHN renal = system: ACHN renal
BT-549 breast = system: BT-549 breast
CAKI-1 renal = system: CAKI-1 renal
CCRF-CEM leukemia = system: CCRF-CEM leukemia
COLO 205 colon = system: COLO 205 colon
DU-145 prostate = system: DU-145 prostate
EKVX NSCLC = system: EKVX NSCLC
HCC-2998 colon = system: HCC-2998 colon
HCT-116 colon = system: HCT-116 colon
HCT-15 colon = system: HCT-15 colon
HL-60(TB) leukemia = system: HL-60(TB) leukemia
HOP-62 NSCLC = system: HOP-62 NSCLC
HOP-92 NSCLC = system: HOP-92 NSCLC
HS 578T breast = system: HS 578T breast
HT29 colon = system: HT29 colon
IGROV1 ovarian = system: IGROV1 ovarian
K-562 leukemia = system: K-562 leukemia
KM12 colon = system: KM12 colon
LOX IMVI melanoma = system: LOX IMVI melanoma
M14 melanoma = system: M14 melanoma
MALME-3M melanoma = system: MALME-3M melanoma
MCF7 breast = system: MCF7 breast
MDA-MB-231 breast = system: MDA-MB-231 breast
MDA-MB-435 melanoma = system: MDA-MB-435 melanoma
MDA-MB-468 breast = system: MDA-MB-468 breast
MOLT-4 leukemia = system: MOLT-4 leukemia
NCI-H226 lung = system: NCI-H226 lung
NCI-H23 lung = system: NCI-H23 lung
NCI-H322M lung = system: NCI-H322M lung
NCI-H460 NSCLC = system: NCI-H460 NSCLC
NCI-H522 lung = system: NCI-H522 lung
NCI/ADR-RES ovarian = system: NCI/ADR-RES ovarian
OVCAR-3 ovarian = system: OVCAR-3 ovarian
OVCAR-4 ovarian = system: OVCAR-4 ovarian
OVCAR-5 ovarian = system: OVCAR-5 ovarian
OVCAR-8 ovarian = system: OVCAR-8 ovarian
PC-3 prostate = system: PC-3 prostate
RPMI-8226 leukemia = system: RPMI-8226 leukemia
RXF 393 renal = system: RXF 393 renal
SF-268 CNS = system: SF-268 CNS
SF-295 CNS = system: SF-295 CNS
SF-539 CNS = system: SF-539 CNS
SK-MEL-28 melanoma = system: SK-MEL-28 melanoma
SK-MEL-5 melanoma = system: SK-MEL-5 melanoma
SK-OV-3 ovarian = system: SK-OV-3 ovarian
SN12C renal = system: SN12C renal
SNB-19 CNS = system: SNB-19 CNS
SNB-75 CNS = system: SNB-75 CNS
SR leukemia = system: SR leukemia
SW-620 colon = system: SW-620 colon
T-47D breast = system: T-47D breast
TK-10 renal = system: TK-10 renal
U251 glioblastoma = system: U251 glioblastoma
UACC-257 melanoma = system: UACC-257 melanoma
UO-31 renal = system: UO-31 renal

## COc1ccc2c(c[n+](C)c3c4cc5c(cc4ccc23)OCO5)c1OC
786-0 renal
  GI50: 1.34 µM
  TGI: 2.63 µM
A498 renal
  GI50: 1.87 µM
  TGI: 3.39 µM
A549 NSCLC
  GI50: 1.83 µM
  TGI: 3.27 µM
ACHN renal
  GI50: 1.82 µM
  TGI: 3.21 µM
BT-549 breast
  GI50: 0.68 µM
  TGI: 1.94 µM
CAKI-1 renal
  GI50: 1.27 µM
  TGI: 2.56 µM
CCRF-CEM leukemia
  GI50: 0.146 µM
  TGI: 0.278 µM
COLO 205 colon
  GI50: 1.57 µM
  TGI: 2.92 µM
DU-145 prostate
  GI50: 1.46 µM
  TGI: 2.77 µM
EKVX NSCLC
  GI50: 1.45 µM
  TGI: 2.76 µM
HCC-2998 colon
  GI50: 1.59 µM
  TGI: 2.94 µM
HCT-116 colon
  GI50: 0.399 µM
  TGI: 1.38 µM
HCT-15 colon
  GI50: 0.825 µM
  TGI: 2.07 µM
HL-60(TB) leukemia
  GI50: 0.182 µM
  TGI: 0.324 µM
HOP-62 NSCLC
  GI50: 1.06 µM
  TGI: 2.25 µM
HOP-92 NSCLC
  GI50: 1.51 µM
  TGI: 2.85 µM
HS 578T breast
  GI50: 1.55 µM
  TGI: 2.89 µM
HT29 colon
  GI50: 1.68 µM
  TGI: 3.05 µM
IGROV1 ovarian
  GI50: 1.62 µM
  TGI: 2.97 µM
K-562 leukemia
  GI50: 1.61 µM
  TGI: 2.97 µM
KM12 colon
  GI50: 1.47 µM
  TGI: 2.8 µM
LOX IMVI melanoma
  GI50: 1.1 µM
  TGI: 2.31 µM
M14 melanoma
  GI50: 1.59 µM
  TGI: 2.94 µM
MALME-3M melanoma
  GI50: 0.748 µM
  TGI: 1.96 µM
MCF7 breast
  GI50: 1.13 µM
  TGI: 2.35 µM
MDA-MB-231 breast
  GI50: 0.721 µM
  TGI: 1.99 µM
MDA-MB-435 melanoma
  GI50: 1.63 µM
  TGI: 2.99 µM
MDA-MB-468 breast
  GI50: 0.365 µM
  TGI: 1.36 µM
MOLT-4 leukemia
  GI50: 0.163 µM
  TGI: 0.3 µM
NCI-H226 lung
  GI50: 1.83 µM
  TGI: 3.22 µM
NCI-H23 lung
  GI50: 1 µM
  TGI: 2.16 µM
NCI-H322M lung
  GI50: 1.77 µM
  TGI: 3.19 µM
NCI-H460 NSCLC
  GI50: 1.52 µM
  TGI: 2.85 µM
NCI-H522 lung
  GI50: 1.44 µM
  TGI: 2.75 µM
NCI/ADR-RES ovarian
  GI50: 1.02 µM
  TGI: 2.59 µM
OVCAR-3 ovarian
  GI50: 0.362 µM
  TGI: 1.33 µM
OVCAR-4 ovarian
  GI50: 1.5 µM
  TGI: 2.87 µM
OVCAR-5 ovarian
  GI50: 1.76 µM
  TGI: 3.16 µM
OVCAR-8 ovarian
  GI50: 0.395 µM
  TGI: 1.43 µM
PC-3 prostate
  GI50: 1.19 µM
  TGI: 2.42 µM
RPMI-8226 leukemia
  GI50: 0.44 µM
  TGI: 1.46 µM
RXF 393 renal
  GI50: 1.57 µM
  TGI: 2.94 µM
SF-268 CNS
  GI50: 1.34 µM
  TGI: 2.62 µM
SF-295 CNS
  GI50: 1.74 µM
  TGI: 3.15 µM
SF-539 CNS
  GI50: 1.63 µM
  TGI: 2.99 µM
SK-MEL-28 melanoma
  GI50: 1.9 µM
  TGI: 3.35 µM
SK-MEL-5 melanoma
  GI50: 0.72 µM
  TGI: 2.04 µM
SK-OV-3 ovarian
  GI50: 1.71 µM
  TGI: 3.13 µM
SN12C renal
  GI50: 0.615 µM
  TGI: 1.89 µM
SNB-19 CNS
  GI50: 1.5 µM
  TGI: 2.84 µM
SNB-75 CNS
  GI50: 1.64 µM
  TGI: 3 µM
SR leukemia
  GI50: 0.174 µM
  TGI: 0.317 µM
SW-620 colon
  GI50: 0.267 µM
  TGI: 0.758 µM
T-47D breast
  GI50: 1.63 µM
  TGI: 2.99 µM
TK-10 renal
  GI50: 1.42 µM
  TGI: 2.73 µM
U251 glioblastoma
  GI50: 0.866 µM
  TGI: 2.08 µM
UACC-257 melanoma
  GI50: 1.23 µM
  TGI: 2.48 µM
UO-31 renal
  GI50: 1.4 µM
  TGI: 2.7 µM
